Results published in US20250163072A1, “MACROCYCLIC COMPOUNDS FOR THE TREATMENT OF CANCER” (Hoffmann-La Roche Inc., priority 2021, published 2025).
Read-outs that look alike come from different tables or passages of the source.

Legend:
[1] = target: T1, KRAS G12C-BRAF complex (Homo sapiens (Human), UniProt P01116+P62937, G12C); experiment: KRAS G12C-BRAF NanoBit assay; format: cell-based; conditions: HEK293 cells, SmBit-KRAS G12C and BRAF RBD-LgBit, 3 hours incubation
Protocol: This assay is to measure the ability of tested compounds in disruption of the KRAS G12C-BRAF complex at the cellular level, we established the NanoBit cellular assay in mammalian HEK293 (ATCC) cells. HEK293 cells were grown and maintained using DMEM medium (Thermo Fisher Scientific) with 10% fetal bovine serum and 1% penicillin/streptomycin. Both KRAS G12C and BRAF RBD were cloned into the NanoBit vectors ([…] vectors system, Promega) with the orientations SmBit-KRAS G12C and BRAF RBD-LgBit, respectively, and co-transfected into HEK293 cells. Cells were then selected with 100 μg/mL Hygromycin B (10687010, Thermo Fisher) and Blasticidin (5 μg/mL) for 4 weeks to get the stable cell pool. On the day of the assay, 75 nL of compound solution was presented in a 384-well assay plate as a 16-point 3-fold dilution starting from a final concentration of 30 μM in DMSO. Then cells were seeded at 10,000 cells/25 μL/well in a 384-well plate. After 3 hours of incubation, 6 μL of volume of Nano-Glo® Live Cell Substrate (Promega) was added into each well. Monitor luminescence using ultra384 model in Envision at 20 minutes. Compounds that facilitate disruption of the KRAS G12C-BRAF RBD complex were identified as those eliciting a decrease of luminescence relative to DMSO control wells.

[2] = target: T1, KRAS G12C-BRAF complex; experiment: KRAS-BRAF with CYPA (50 nM) interaction assay (TR-FRET), G12C; format: binding; conditions: GMPPNP loaded 6His-KRAS, GST-BRAF RBD
Protocol: (§1) In this example, TR-FRET was also used to measure the compound or compound-CYPA dependent disruption of the KRAS G12C-BRAF complex. This protocol was also used to measure disruption of KRAS G12D or KRAS G12V binding to BRAF by a compound of the invention, respectively. In assay buffer containing 25 mM HEPES PH=7.4 (4-(2-hydroxyethyl)-1-piperazineethanesulfonic acid, Thermo, 15630080), 0.002% Tween20, 0.1% BSA, 100 mM NaCl, 5 mM MgCl2, 10 μM GMPPNP (Guanosine 5'-[β,γ-imido]triphosphate trisodium salt hydrate, Sigma, G0635), tagless CYPA, GMPPNP loaded 6His-KRAS proteins, and GST-BRAF^RBD were mixed in a well of a 384-well assay plate at final concentrations of 50 nM, 6.25 nM and 1 nM, respectively. Compound was present in plate wells as a 16-point 3-fold dilution series starting at a final concentration of 10 μM and incubated for 3 hours. A mixture of MAb Anti-6His-XL665 (Cisbio, 61HISXLB) and Mab anti-GST-TB cryptate (Cisbio, 61GSTTLB) was then added at a final concentration of 6.67 nM and 0.21 nM, respectively, and the plate was incubated for an additional 1.5 hours. TR-FRET signal was read on a […] microplate reader (Ex320 nm, Em 665/615 nm). Compounds that facilitate disruption of the KRAS-BRAF complex were identified as those eliciting a decrease in the TR-FRET ratio relative to DMSO control wells.

[3] = target: KRAS G12D binding to BRAF (Homo sapiens (Human), UniProt P01116+P62937, G12D); experiment: KRAS-BRAF with CYPA (50 nM) interaction assay (TR-FRET), G12D; conditions: GMPPNP loaded 6His-KRAS, GST-BRAF RBD
KRAS G12D binding to BRAF, sequence (P01116-2 other isoform, or with tags, fused parts or gaps G12D): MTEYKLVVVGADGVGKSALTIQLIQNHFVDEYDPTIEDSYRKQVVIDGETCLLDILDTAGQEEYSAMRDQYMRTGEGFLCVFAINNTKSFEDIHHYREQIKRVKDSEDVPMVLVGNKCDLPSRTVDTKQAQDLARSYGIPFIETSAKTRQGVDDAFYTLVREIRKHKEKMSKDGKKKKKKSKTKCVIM
KRAS G12D binding to BRAF, sequence (P62937 whole entry): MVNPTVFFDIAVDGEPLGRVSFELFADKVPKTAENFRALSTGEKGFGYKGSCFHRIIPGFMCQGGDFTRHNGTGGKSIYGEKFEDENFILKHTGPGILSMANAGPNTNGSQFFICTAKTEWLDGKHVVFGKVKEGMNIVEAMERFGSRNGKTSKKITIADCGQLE
Protocol: as §1

[4] = target: KRAS G12V binding to BRAF (Homo sapiens (Human), UniProt P01116+P62937, G12V); experiment: KRAS-BRAF with CYPA (50 nM) interaction assay (TR-FRET), G12V; conditions: GMPPNP loaded 6His-KRAS, GST-BRAF RBD
KRAS G12V binding to BRAF, sequence (P01116-2 other isoform, or with tags, fused parts or gaps G12V): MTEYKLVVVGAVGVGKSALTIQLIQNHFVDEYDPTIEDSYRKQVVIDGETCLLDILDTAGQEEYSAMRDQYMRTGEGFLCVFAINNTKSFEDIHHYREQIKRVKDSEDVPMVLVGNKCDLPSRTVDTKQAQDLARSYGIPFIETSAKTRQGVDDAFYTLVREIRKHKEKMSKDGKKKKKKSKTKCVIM
KRAS G12V binding to BRAF, sequence (P62937 whole entry): as the sequence (P62937 whole entry) above
Protocol: as §1

[5] = test system: KRAS G12C in NCI-H358 cells; experiment: pERK inhibition assay, NCI-H358; format: cell-based, human; conditions: 4 hours incubation
Procedure, shortened: (§2)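 NCI-H358, AGS and SW620 cells in RPMI-1640/10% FBS were plated overnight, then exposed to compound (0.5% DMSO final) for 4 h. After fixation and permeabilization, phospho-ERK was quantified by in-cell ELISA (HRP secondary, TMB, OD450); IC50 from a 4-parameter sigmoidal fit.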

[6] = test system: KRAS G12D in AGS cells; experiment: pERK inhibition assay, AGS; format: cell-based, human; conditions: 4 hours incubation
Procedure, shortened: as §2

[7] = test system: KRAS G12V in SW620; experiment: pERK inhibition assay, SW620; format: cell-based, human; conditions: 4 hours incubation
Procedure, shortened: as §2

[8] = test system: NCI-H358 cells; experiment: Cell viability assay, NCI-H358; format: cell-based, human; conditions: NCI-H358, 72 hours, Cell Counting Kit-8, read-out: G12C IC50
Procedure, shortened: (§3)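 Cells were plated at 5,000 (NCI-H358) or 2,000 (AGS, SW620) per well and incubated overnight. They were then treated with compound in 0.5% DMSO for 72 h. Viability was read with CCK-8 as OD450 minus OD650 after 2 h, and IC50 came from a 4-parameter sigmoidal fit.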

[9] = test system: AGS cells; experiment: Cell viability assay, AGS; format: cell-based, human; conditions: 72 hours, Cell Counting Kit-8, read-out: G12D IC50
Procedure, shortened: as §3

[10] = test system: SW620 cells; experiment: Cell viability assay, SW620; format: cell-based, human; conditions: Cell Counting Kit-8, read-out: G12V IC50
Procedure, shortened: as §3

[11] = GSH reaction rates (inherent GSH reactivity); format: in vitro ADME
Protocol: (§4) Therefore Strategy to minimize the GSH metabolism is very critical. Short T1/2 in inherent GSH reaction indicated high GSH reaction rate. Thus T1/2 in inherent GSH reaction assay was determined for the screening of candidates. Reference compounds and compounds of this invention potentially could form conjugation with GSH either through halogenated moieties substitution reaction or direct Michael addition reaction. This test was therefore performed to check GSH reactivity of listed compounds. For inherent GSH reactivity determination, compounds at 1 μM were incubated at 37° C. with and without 5 mM GSH for 0, 0.5, 1, 2, 4 and 6 h in 100 mM potassium phosphate buffer at pH 7.4. At the end of the designated time points, samples were quenched with acetonitrile containing 10 mM N-ethylmaleimide and an internal standard. Quenched samples were centrifuged, and supernatants were analyzed by LC-MS/MS for compound quantification.

[12] = test system: GSH; experiment: GSH reaction rates (inherent GSH reactivity); format: in vitro ADME; conditions: buffer, pH 7.4
Protocol: as §4

[13] = Human hepatocytes stability assay; format: in vitro ADME; conditions: for CL_hep (Human): 1 μM compound, human hepatocytes 1×10^6 cells/mL
Protocol: The hepatocyte stability assay measures the rate of disappearance of a compound from incubations with cryopreserved suspension hepatocytes from human. Positive controls, including Midazolam, Raloxifene and Dextromethorphan, are included in every experiment. Incubations consist of 1 μM tested compound and suspension of human hepatocytes (1×10^6 cells/mL) in supplemented Williams' E Medium with […] and 0.5% Penicillin-streptomycin. The hepatocyte suspension was incubated with intermittent shaking 900 rpm at 37° C., in a 5% CO2 incubator. The reaction was stopped by adding methanol containing internal standard (2 μM Tolbutamide) at 2, 10, 20, 40, 60 and 120 minutes after compound addition, depletion of the parent compound was monitored by LC-MS/MS analysis.

[14] = Homo sapiens, SW-620, SW620 cells
[15] = Homo sapiens, SW-620, SW620, 72 hours

T1 sequence (P01116-2 other isoform, or with tags, fused parts or gaps G12C): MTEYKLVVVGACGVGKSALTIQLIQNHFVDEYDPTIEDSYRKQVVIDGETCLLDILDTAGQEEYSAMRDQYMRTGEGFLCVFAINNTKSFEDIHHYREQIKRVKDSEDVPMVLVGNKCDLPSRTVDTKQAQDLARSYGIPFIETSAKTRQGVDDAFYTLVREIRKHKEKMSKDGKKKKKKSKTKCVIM
T1 sequence (P62937 whole entry): as the sequence (P62937 whole entry) above

SMILES | IC50 [1] [nM] | IC50 [2] [nM] | IC50 [3] [nM] | IC50 [4] [nM] | IC50 ([5]; Homo sapiens) [nM] | IC50 ([6]; Homo sapiens) [nM] | IC50 [7, 14] [nM] | IC50 ([8]; Homo sapiens) [nM] | IC50 ([9]; Homo sapiens) [nM] | IC50 [10, 15] [nM] | IC50 [5] [nM] | IC50 [6] [nM] | IC50 ([7]; SW620 cells) [nM] | IC50 [8] [nM] | IC50 [9] [nM] | IC50 ([10]; SW620, 72 hours) [nM] | conjugation with GSH (in words) [11] | half-life at 1 μM [12] [h] | CL_hep (Human) [13] [mL/min/kg] | Clearance Category ([13]; human hepatocytes)
CCn1c(-c2cc(N3CCN(C)CC3)cnc2[C@H](C)OC)c2c3cc(ccc31)-c1cc(O)cc(c1)C[C@H](NC(=O)[C@H](C(C)C)N(C)C(=O)[C@H]1CCN(C(=O)[C@H](F)Cl)C1)C(=O)N1CCC[C@H](N1)C(=O)OCC(C)(C)C2 (atropisomer, axis not shown; (M)) [Example 12, (3S)-1-[(2R)-2-chloro-2-fluoro-acetyl]-N-[(1S)-1-[[(8S,14S)-22-ethyl-4-hydroxy-(21M)-21-[2-[(1S)-1-methoxyethyl]-5-(4-methylpiperazin-1-yl)-3-pyridyl]-18,18-dimethyl-9,15-dioxo-16-oxa-10,22,28-triazapentacyclo[18.5.2.12,6.110,14.023,27]nonacosa-1(26),2,4,6(29),20,23(27),24-heptaen-8-yl]carbamoyl]-2-methyl-propyl]-N-methyl-pyrrolidine-3-carboxamide] | 37 | 2 | 6 | 3 | 6 | 10 | 12 | 5 | 16 | 16 | – | – | – | – | – | – | – | – | – | –
CCn1c(-c2cccnc2[C@H](C)OC)c2c3cc(ccc31)-c1cc(O)cc(c1)C[C@H](NC(=O)[C@H](C(C)C)N(C)C(=O)[C@H]1CCN(C(=O)C(F)Cl)C1)C(=O)N1CCC[C@H](N1)C(=O)OCC(C)(C)C2 (stereo partly drawn) [Example 2, (3S)-1-[(2R)-2-chloro-2-fluoro-acetyl]-N-[(1S)-1-[[(8S,14S)-22-ethyl-4-hydroxy-(21M)-21-[2-[(1S)-1-methoxyethyl]-3-pyridyl]-18,18-dimethyl-9,15-dioxo-16-oxa-10,22,28-triazapentacyclo[18.5.2.12,6.110,14.023,27]nonacosa-1(26),2,4,6(29),20,23(27),24-heptaen-8-yl]carbamoyl]-2-methyl-propyl]-N-methyl-pyrrolidine-3-carboxamide] | 68 | 6 | 298 | 25 | 3 | 56 | 37 | 2 | 83 | 156 | – | – | – | – | – | – | – | – | – | –
CO[C@@H](C)c1ncc(N2CCN(C)CC2)cc1-c1c2c3cc(ccc3n1CC(F)(F)F)-c1csc(n1)C[C@H](NC(=O)[C@H](C(C)C)N1CC[C@]3(CCN(C(=O)[C@H](F)Cl)C3)C1=O)C(=O)N1CCC[C@H](N1)C(=O)OCC(C)(C)C2 [Example 24, (2S)-2-[(5R)-7-[(2R)-2-chloro-2-fluoro-acetyl]-1-oxo-2,7-diazaspiro[4.4]nonan-2-yl]-N-[(7S,13S)-(20M)-20-[2-[(1S)-1-methoxyethyl]-5-(4-methylpiperazin-1-yl)-3-pyridyl]-17,17-dimethyl-8,14-dioxo-21-(2,2,2-trifluoroethyl)-15-oxa-4-thia-9,21,27,28-tetrazapentacyclo[17.5.2.12,5.19,13.022,26]octacosa-1(25),2,5(28),19,22(26),23-hexaen-7-yl]-3-methyl-butanamide] | 36 | 21 | > 10000 | > 10000 | – | – | – | – | – | – | 2 | 65 | 42 | < 0.6 | 886 | 489 | – | – | – | –
CC(C)[C@@H](C(=O)N[C@H]1Cc2cc(O)cc(c2)-c2ccc3c(C(C)(C)C#N)cn(c3c2)CC(C)(C)COC(=O)[C@@H]2CCCN(N2)C1=O)N1CCCC2(CCN(C(=O)CCl)C2)C1=O (stereo partly shown) [RM351, reference compound] | – | – | – | – | 356 | > 10000 | > 10000 | 1390 | 2100 | 4810 | – | – | – | – | – | – | formed conjugation with GSH | 4.3 | 15.5 | –
CCn1c(-c2cccnc2[C@H](C)OC)c2c3cc(ccc31)-c1cc(O)cc(c1)C[C@H](NC(=O)[C@H](C(C)C)N(C)C(=O)C1CN(C(=O)CCl)C1)C(=O)N1CCC[C@H](N1)C(=O)OCC(C)(C)C2 [RM461, reference compound] | – | – | – | – | 7 | > 10000 | > 10000 | 22 | 2710 | 4040 | – | – | – | – | – | – | formed conjugation with GSH | 5 | 16.4 | high (CL_hep (mL/min/kg)>16.24 is high clearance)
